The source of these data is ChEMBL document CHEMBL6087464, “Design, Synthesis, and Biological Evaluation of 3,4-Dihydroisoquinolin-1(2H)-one Derivatives as Protein Arginine Methyltransferase 5 Inhibitors for the Treatment of Non-Hodgkin's Lymphoma” (J Med Chem, 2025).

The structures appear in SMILES notation. The source made the active and inactive calls.

Data set [1] has as its system Z-138. Nature of the data set: Antiproliferative activity against human Z138 cells measured after 7 days by CellTiter-Glo luminescence cell viability assay. Type of data set: functional, cell-based. Conditions: Z-138, 168 h. (Cellular ATP, detected with luciferase, serves as a proxy for viable cell number.)
The target of data set [2] is T1, PRMT5/MEP50 complex (Homo sapiens, UniProt O14744). Nature of the data set: Inhibition of recombinant N-terminal FLAG-tagged human full-length PRMT5/full length human MEP50 extracted from baculovirus expression system using [3H]-SAM as substrate preincubated for 15 mins followed by substrate addition and measured after 60 mins by multimode plate reader analysis.

Data set [3] has as its target PRMT5/MEP50 complex (Homo sapiens, UniProt O14744+Q9BQA1). In words: Binding affinity to PRMT5/MEP50 (unknown origin) at 5 uM by SPR analysis. Type of data set: protein-complex assay. For orientation: In SPR one partner is held on a chip, and binding of the other changes the refractive index at the surface.
Data set [4] concerns the target T1, PRMT5/MEP50 complex. In words: Binding affinity to PRMT5/MEP50 (unknown origin) assessed as dissociation constant by SPR analysis. The format is protein-complex assay.
For the next data set, the system named is A549. Nature of the data set: Antiproliferative activity against human A549 cells measured after 4 to 5 days by CCK-8 assay. The format is functional, cell-based. In general terms: Tetrazolium dyes change colour on reduction, which living cells bring about.
In another data set the test system is Ishikawa. In words: Antiproliferative activity against human Ishikawa cells measured after 4 to 5 days by CCK-8 assay. The format is functional, cell-based.
For a further data set, the system named is A-427. Nature of the data set: Antiproliferative activity against human A-427 cells measured after 4 to 5 days by CCK-8 assay. Type of data set: functional, cell-based.
The test system of a further data set is NCI-H1975. Nature of the data set: Antiproliferative activity against human NCI-H1975 cells measured after 4 to 5 days by CCK-8 assay. The format is functional, cell-based.
Data set [5] relates to Z-138. Nature of the data set: Antiproliferative activity against PRMT5 knockout human Z138 cells measured after 7 days by CellTiter-Glo luminescence cell viability assay. Conditions: Z-138, 168 h. The format is functional, cell-based.
The target of data set [6] is Protein arginine N-methyltransferase 5 (Homo sapiens) (UniProt O14744). In words: Inhibition of PRMT5 in human Z138 cells assessed as decrease in symmetric dimethyl arginine level incubated for 48 hrs by Western blot analysis. The format is cell-based. Conditions: dose 0.005-5 µM.
The subject of data set [7] is Z-138. Nature of the data set: Antitumor activity against human Z138 cells xenografted in female SCID.BG nude mouse assessed as tumor growth inhibition at 25 mg/kg, po administered twice a day for 21 days relative to control. Type of data set: functional. The conditions noted are these: Z-138, 504 h, time 21 day, read-out: TGI.
Data set [8] deals with Z-138. Nature of the data set: Antitumor activity against human Z138 cells xenografted in female SCID.BG nude mouse assessed as tumor growth inhibition at 50 mg/kg, po administered twice a day for 21 days relative to control. Conditions: Z-138, 504 h, time 21 day, read-out: TGI. Type of data set: functional.
A short description of data set [9]: Toxicity in female SCID.BG […] mouse xenografted with human Z138 cells assessed as body weight loss at 12.5 to 50 mg/kg, po administered twice a day for 21 days. The format is organism-based. The conditions noted are these: in vivo, 504 h, dose 12.5-50 mg/kg, time 21 day.
A short description of data set [10]: Toxicity in Sprague-Dawley rat assessed as animal death at 31.25 to 125 mg/kg, po administered once a day for 14 days. Type of data set: organism-based. Conditions: in vivo, 336 h, dose 31.25-125 mg/kg, time 14 day.
A short description of data set [11]: Toxicity in Sprague-Dawley rat assessed as morphological changes in spleen at 31.25 to 125 mg/kg, po administered once a day for 14 days by H and E staining based analysis. Type of data set: organism-based. The conditions noted are these: in vivo, 336 h, dose 31.25-125 mg/kg, time 14 day.
Data set [12] can be described thus: Toxicity in Sprague-Dawley rat assessed as morphological changes in stomach at 31.25 to 125 mg/kg, po administered once a day for 14 days by H and E staining based analysis. Type of data set: organism-based. Conditions: in vivo, 336 h, dose 31.25-125 mg/kg, time 14 day.
The nature of data set [13]: Toxicity in Sprague-Dawley rat assessed as morphological changes in caecum at 31.25 to 125 mg/kg, po administered once a day for 14 days by H and E staining based analysis. Type of data set: organism-based. Conditions: in vivo, 336 h, dose 31.25-125 mg/kg, time 14 day.
Data set [14] is described as follows: Toxicity in Sprague-Dawley rat assessed as structural changes in spleen at 31.25 to 125 mg/kg, po administered once a day for 14 days by H and E staining based analysis. Type of data set: organism-based. Conditions: in vivo, 336 h, dose 31.25-125 mg/kg, time 14 day.
The nature of data set [15]: Metabolic stability in mouse liver microsomes assessed as half-life at 1 uM measured upto 240 mins. Type of data set: ADME, Microsome.
Data set [16] can be described thus: Metabolic stability in dog liver microsomes assessed as half-life at 1 uM measured upto 240 mins. Type of data set: ADME, Canis lupus familiaris, Microsome.
A short description of data set [17]: Protein binding in mouse plasma. The format is ADME, cell-free. Conditions: read-out: PPB (converted).
Data set [18] in a line: Protein binding in human plasma. The format is ADME, cell-free. Conditions: read-out: PPB (converted).
In another data set the target is Cytochrome P450 1A2 (Homo sapiens, UniProt P05177). Nature of the data set: Inhibition of CYP1A2 (unknown origin). The format is ADME.
Another data set concerns the target Cytochrome P450 2C9 (Homo sapiens, UniProt P11712). Nature of the data set: Inhibition of CYP2C9 (unknown origin). The format is ADME.
The target in a further data set is Cytochrome P450 2D6 (Homo sapiens, UniProt P10635). Nature of the data set: Inhibition of CYP2D6 (unknown origin). The format is ADME.
A further data set concerns the target Cytochrome P450 3A4 (Homo sapiens, UniProt P08684). Nature of the data set: Inhibition of CYP3A4 (unknown origin) using midazolam as substrate. The format is ADME.

T1 sequence (O14744 whole entry): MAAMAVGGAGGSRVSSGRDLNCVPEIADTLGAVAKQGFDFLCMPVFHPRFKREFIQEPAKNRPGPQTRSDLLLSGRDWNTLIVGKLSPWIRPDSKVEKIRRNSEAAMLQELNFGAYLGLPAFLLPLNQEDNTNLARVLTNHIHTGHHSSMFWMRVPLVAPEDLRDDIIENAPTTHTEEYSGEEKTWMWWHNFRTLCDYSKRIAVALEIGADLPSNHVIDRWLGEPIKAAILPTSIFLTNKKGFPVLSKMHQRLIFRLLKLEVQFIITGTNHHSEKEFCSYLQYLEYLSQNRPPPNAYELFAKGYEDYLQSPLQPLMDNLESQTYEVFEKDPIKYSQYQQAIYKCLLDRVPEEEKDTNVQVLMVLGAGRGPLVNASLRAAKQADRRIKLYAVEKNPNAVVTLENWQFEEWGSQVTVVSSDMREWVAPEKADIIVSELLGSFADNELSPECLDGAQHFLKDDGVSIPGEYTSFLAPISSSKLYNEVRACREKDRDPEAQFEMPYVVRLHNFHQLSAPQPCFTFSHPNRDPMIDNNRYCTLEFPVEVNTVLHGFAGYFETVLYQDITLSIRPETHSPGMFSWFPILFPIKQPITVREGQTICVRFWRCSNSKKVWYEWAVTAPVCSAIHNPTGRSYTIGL
T1 sequence (Q9BQA1 whole entry, further chain): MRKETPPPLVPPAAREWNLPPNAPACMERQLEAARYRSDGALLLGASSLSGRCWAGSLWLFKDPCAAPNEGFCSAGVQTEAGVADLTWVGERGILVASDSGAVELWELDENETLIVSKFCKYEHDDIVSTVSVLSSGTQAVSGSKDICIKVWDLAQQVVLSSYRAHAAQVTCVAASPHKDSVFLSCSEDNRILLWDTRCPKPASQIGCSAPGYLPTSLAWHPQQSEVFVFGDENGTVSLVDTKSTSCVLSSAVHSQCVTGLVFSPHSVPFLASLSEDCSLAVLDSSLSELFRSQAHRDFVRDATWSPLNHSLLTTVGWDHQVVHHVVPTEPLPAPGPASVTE
Sequence of Cytochrome P450 3A4 (P08684 whole entry): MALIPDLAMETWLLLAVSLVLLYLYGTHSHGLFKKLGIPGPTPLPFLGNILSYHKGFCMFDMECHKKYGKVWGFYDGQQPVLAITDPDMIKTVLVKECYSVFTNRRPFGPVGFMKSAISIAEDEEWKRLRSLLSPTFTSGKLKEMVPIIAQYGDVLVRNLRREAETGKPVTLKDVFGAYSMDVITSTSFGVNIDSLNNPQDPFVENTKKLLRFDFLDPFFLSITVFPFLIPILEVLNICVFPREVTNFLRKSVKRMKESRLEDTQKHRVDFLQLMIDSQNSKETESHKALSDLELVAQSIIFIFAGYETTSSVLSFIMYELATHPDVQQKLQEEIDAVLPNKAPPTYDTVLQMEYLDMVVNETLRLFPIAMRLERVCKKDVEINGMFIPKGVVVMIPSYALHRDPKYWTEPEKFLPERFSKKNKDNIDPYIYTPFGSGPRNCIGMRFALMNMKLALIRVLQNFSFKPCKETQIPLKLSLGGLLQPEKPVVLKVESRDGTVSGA
Sequence of Cytochrome P450 2C9 (P11712 whole entry): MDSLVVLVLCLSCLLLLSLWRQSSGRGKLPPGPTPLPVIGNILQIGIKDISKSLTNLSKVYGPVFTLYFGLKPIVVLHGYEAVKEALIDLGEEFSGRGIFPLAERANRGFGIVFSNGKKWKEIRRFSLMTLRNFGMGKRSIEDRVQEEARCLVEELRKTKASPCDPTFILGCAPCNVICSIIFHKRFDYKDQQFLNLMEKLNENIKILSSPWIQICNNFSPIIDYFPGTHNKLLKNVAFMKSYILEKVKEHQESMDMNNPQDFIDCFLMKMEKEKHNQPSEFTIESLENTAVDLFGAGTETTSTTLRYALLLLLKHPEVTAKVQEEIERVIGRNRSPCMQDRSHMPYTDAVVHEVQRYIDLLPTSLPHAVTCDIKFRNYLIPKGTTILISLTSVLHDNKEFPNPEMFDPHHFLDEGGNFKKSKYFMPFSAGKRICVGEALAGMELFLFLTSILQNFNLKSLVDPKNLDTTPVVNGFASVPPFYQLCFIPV
Sequence of Protein arginine N-methyltransferase 5 (Homo sapiens) (O14744 whole entry): as the sequence (O14744 whole entry) above
Sequence of Cytochrome P450 2D6 (P10635 whole entry): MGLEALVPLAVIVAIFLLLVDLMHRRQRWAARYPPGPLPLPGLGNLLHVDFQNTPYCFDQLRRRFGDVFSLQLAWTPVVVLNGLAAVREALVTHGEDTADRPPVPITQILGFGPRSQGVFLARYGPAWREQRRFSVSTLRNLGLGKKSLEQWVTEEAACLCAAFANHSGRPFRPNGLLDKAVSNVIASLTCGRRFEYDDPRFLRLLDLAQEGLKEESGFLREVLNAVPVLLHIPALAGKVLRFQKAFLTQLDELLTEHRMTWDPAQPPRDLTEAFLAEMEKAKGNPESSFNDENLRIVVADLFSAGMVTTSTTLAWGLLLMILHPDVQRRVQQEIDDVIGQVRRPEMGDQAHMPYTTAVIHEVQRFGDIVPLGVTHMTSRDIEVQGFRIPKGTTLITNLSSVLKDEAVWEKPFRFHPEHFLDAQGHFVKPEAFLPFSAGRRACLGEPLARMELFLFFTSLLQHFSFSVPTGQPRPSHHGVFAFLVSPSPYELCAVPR
Sequence of Cytochrome P450 1A2 (P05177 whole entry): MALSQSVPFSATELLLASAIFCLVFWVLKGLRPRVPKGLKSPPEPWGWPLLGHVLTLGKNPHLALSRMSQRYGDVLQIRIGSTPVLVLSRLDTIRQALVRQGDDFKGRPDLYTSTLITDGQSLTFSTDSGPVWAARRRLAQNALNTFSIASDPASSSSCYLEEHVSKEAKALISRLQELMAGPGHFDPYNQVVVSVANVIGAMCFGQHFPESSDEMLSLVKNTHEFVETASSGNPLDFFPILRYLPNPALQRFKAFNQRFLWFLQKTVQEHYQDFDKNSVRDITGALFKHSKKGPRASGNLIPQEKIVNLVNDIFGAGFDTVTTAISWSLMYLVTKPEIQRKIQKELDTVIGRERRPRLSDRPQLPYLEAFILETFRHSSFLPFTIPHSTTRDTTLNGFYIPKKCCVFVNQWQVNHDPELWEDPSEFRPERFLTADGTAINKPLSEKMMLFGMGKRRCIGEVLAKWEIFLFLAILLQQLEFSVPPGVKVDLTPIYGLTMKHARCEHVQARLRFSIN

Turning to `CC(=O)N1CCC(Nc2cc(C(=O)NC[C@H](O)CN3CCc4ccccc4C3)ncn2)CC1` [PEMRAMETOSTAT], 25.8 nM corresponded to half-maximal inhibition in the data set with Z-138 [1] (IC50).

As for `CC(=O)N1CC2(CC(Nc3cc4c(cn3)C3(CC3)CN(C[C@H](O)CN3CCc5ccccc5C3)C4=O)C2)C1`, the IC50 (commonly the concentration that gives 50% inhibition) was 20.7 nM on PRMT5/MEP50 complex [2]; 13.7 nM with A549; 5.47 nM in the data set on Ishikawa; 72.3 nM in the data set with A-427; 0.95 nM in the data set with NCI-H1975; greater than 10000 nM in the data set with Z-138 [5]. For the same compound, the IC50 against Cytochrome P450 1A2, on Cytochrome P450 2C9, at Cytochrome P450 2D6 and against Cytochrome P450 3A4 was greater than 50000 nM in each case. Besides, the outcome at PRMT5/MEP50 complex [3] was Active. Further, at PRMT5/MEP50 complex [4], the Kd (usually the concentration at which binding is half-saturated) was 104 nM. Besides, the inhibition result in data set [6] is “Dose-dependent-effect”. Moreover, in the data set with Z-138 [7], the inhibition in vivo at 25 mg/kg worked out at 106%. In addition, the inhibition in vivo at 50 mg/kg with Z-138 [8] was 106%. Besides, the Activity result in data set [9], in data set [10], in [11], in data set [12], in data set [13] and in data set [14] was “Non-toxic” throughout. For the same compound, the half-life (usually the time needed for the level to fall by half in the phase considered) at 1 µM turned out to be 1.39 h in data set [15] and 2.54 h in data set [16]. Moreover, the fraction unbound in data set [17] was 0.0701; in [18], 0.106.
